# Read-outs that look alike come from different tables or passages of the source.
# Legend:
# blood platelets [1] = assay: ADP-induced blood platelet aggregation in platelet-rich plasma; type: cell-based; settings: Homo sapiens; for inhibition at 50 µg/mL: 50 μg/mL, ADP as agonist
# Method: (§1) The blood samples under examination contained a normal range of blood platelets, ranging from 2.15 × 10^5 to 3.41 × 10^5 cells/μl. Platelet-rich plasma (PRP) was prepared by differentially centrifuging whole blood according to the method described earlier ([Kolodziejczyk-Czepas et al., 2021]). Subsequently, freshly obtained PRP samples (495 μL) were pre-incubated for 15 min at 37°C with the tested analytes (5 μL). These mixtures were then transferred into Chrono-Log 490 aggregometer cuvettes (Havertown, United States). Platelet aggregation measurements were conducted after stimulating the samples with either ADP (a final concentration of 10 μM) or collagen (a final concentration of 2 μg/mL), following the manufacturer’s instructions.
# human plasma [2] = assay: Prothrombin time (PT) in blood plasma; type: biochemical; settings: mean ± SE, n = 12
# Method: When determining the hemostatic parameters, stock solutions of the P. spinosa flower extracts (10 mg/mL) were prepared in 30% DMSO. […] The studies mixed 5 µL of the extracts with 495 µL of blood plasma or thrombin solution. Control samples were untreated with the extracts; however, they contained a vehicle for the plant preparations, i.e., DMSO.
# (Budapest, Hungary), according to the laboratory protocols delivered by the manufacturer. […] Control samples were prepared using blood plasma untreated with the extracts.
# human plasma [3] = assay: Thrombin time (TT) in blood plasma; type: biochemical; settings: mean ± SE, n = 12
# Method: (§2) When determining the hemostatic parameters, stock solutions of the P. spinosa flower extracts (10 mg/mL) were prepared in 30% DMSO. DMSO concentrations in working solutions of the tested extracts (0.1, 0.5 and 5 mg/mL) were 15%. The studies mixed 5 µL of the extracts with 495 µL of blood plasma or thrombin solution. Control samples were untreated with the extracts; however, they contained a vehicle for the plant preparations, i.e., DMSO. The effect of DMSO on the investigated parameters was excluded in preliminary tests. All experiments used argatroban, a reference anticoagulant drug, as a positive control.
# (§3) Thrombin (TT), prothrombin (PT) and the activated partial thromboplastin time (APTT) were measured in blood plasma using a Kselmed K-3002 Optic coagulometer (Kselmed, Grudziadz, Poland) and reagents purchased from Diagon Kft. (Budapest, Hungary), according to the laboratory protocols delivered by the manufacturer. Before the assays, the blood plasma samples were pre-incubated with the examined extracts at the final 1–50 μg/mL concentration for 15 min at 37°C. Control samples were prepared using blood plasma untreated with the extracts.
# human plasma [4] = assay: Activated partial thromboplastin time (APTT) in blood plasma; type: biochemical; settings: mean ± SE, n = 12
# Method: as §2
# as §3, with “Before the assays, the blood plasma samples were pre-incubated with the examined extracts at the final 1–50 μg/mL concentration for 15 min at 37°C.” left out
# thrombin [5] = target: T1, thrombin (Bos taurus, UniProt P00735); parameters: method as in Liu et al. (2010); settings: ref Liu et al. (2010); read-out: IC50, thrombin inhibition in optimized TT assay; cited from earlier work
# T1 construct: comprises two polypeptide chains: the light chain, formed by 36 amino acids, and the heavy chain, which has 259 amino acids; purchased Biomed (Lublin, Poland)
# thrombin [6] = tested on: thrombin; parameters: method as in Wei et al. (2019); settings: ref Wei et al. (2019); read-out: IC50, inhibition of proteolytic activity of thrombin; cited from earlier work
# blood platelets [7] = assay: Collagen-induced blood platelet aggregation in platelet-rich plasma; type: cell-based; settings: Homo sapiens, 5 μg/mL
# Method: as §1
# thrombin [8] = target: T1, thrombin; assay: Amidolytic activity of thrombin, chromogenic substrate S-2238; type: biochemical; settings: read-out: IC50, thrombin-inhibitory efficiency in the amidolytic tests (converted)
# Method: When determining the hemostatic parameters, stock solutions of the P. spinosa flower extracts (10 mg/mL) were prepared in 30% DMSO. DMSO concentrations in working solutions of the tested extracts (0.1, 0.5 and 5 mg/mL) were 15%. The studies mixed 5 µL of the extracts with 495 µL of blood plasma or thrombin solution. Control samples were untreated with the extracts; however, they contained a vehicle for the plant preparations, i.e., DMSO.
# The thrombin enzyme, purchased from Biomed (Lublin, Poland), was diluted with 0.05 M Tris-buffered saline (TBS), pH 7.4, to the concentration of 0.75 U/mL, and pre-incubated with the examined extracts at the final concentration of 1–50 μg/mL for 10 min, at 37°C. In control samples, 20% DMSO instead of the extracts was used. The measurements were conducted using a kinetic protocol, with absorbance recorded at 415 nm, every 10 s, for 15 min. The reaction mixture comprised 280 µL of thrombin (pre-incubated with the extracts or control/untreated enzyme) and 40 µL of 3 mM chromogenic substrate Chromogenix S-2238 purchased from Instrumentation Laboratory (Bedford, MA, United States of America). Thrombin amidolytic activity was estimated using the BMG Labtech software based on the maximal velocity of the reaction (Vmax). The assays were performed using 96-well microplates and the BMG Labtech SpectroStar Nano spectrophotometer (BMG LABTECH, Offenburg, Germany).
# human thrombin = target: T2, human thrombin (Homo sapiens, UniProt P00734); assay: Circular dichroism spectra of thrombin; settings: thrombin 15 μg/mL, compounds from 1 μg/mL, 37°C
# T2 construct: comprises two polypeptide chains: the light chain, formed by 36 amino acids, and the heavy chain, which has 259 amino acids; purchased Sigma-Aldrich (St. Louis, MO, United States)
# Method: Each spectrum was the average of three repetitions. Human thrombin was used at a 15 μg/mL concentration in 10 mM phosphate buffer (pH = 7.4). In determining circular dichroism spectra, stock solutions of P. spinosa flower components (10 mg/mL) in 10% tetrahydrofuran were initially prepared. The final concentration of tetrahydrofuran in the sample was less than 0.05%. The selected extract components in phosphate buffer without thrombin at the concentrations used in the experiments were used as a baseline for thrombin/extract complexes spectra.
compound,measurement,setting,value
"O=c1c(O[C@@H]2O[C@@H](CO)[C@H](O)[C@H]2O)c(-c2ccc(O)c(O)c2)oc2cc(O)cc(O)c12 [AV, Quercetin 3-O-α-L-arabinofuranoside]",inhibition at 50 µg/mL,blood platelets [1],≤ 15%
CC1CNc2c(cccc2S(=O)(=O)N[C@@H](CCCNC(=N)N)C(=O)N2CC[C@@H](C)C[C@@H]2C(=O)O)C1 (stereo partly shown) [Argatroban],Clothing times PT,human plasma [2]; 0.5 µg/mL,134.01 ± 1.50 % of the control/untreated human plasma
same,Clothing times PT,human plasma [2]; 5 µg/mL,562.65 ± 12.69 % of the control/untreated human plasma
same,Clothing times PT,human plasma [2]; 10 µg/mL,821.54 ± 46.95 % of the control/untreated human plasma
same,Clothing times TT,human plasma [3]; 0.5 µg/mL,974.60 ± 27.50 % of the control/untreated human plasma
same,Clothing times TT,human plasma [3]; 5 µg/mL,No clot
same,Clothing times TT,human plasma [3]; 10 µg/mL,No clot
same,Clothing times APTT,human plasma [4]; 0.5 µg/mL,202.58 ± 2.32 % of the control/untreated human plasma
same,Clothing times APTT,human plasma [4]; 5 µg/mL,423.72 ± 7.83 % of the control/untreated human plasma
same,Clothing times APTT,human plasma [4]; 10 µg/mL,No clot
"O=c1c(O[C@@H]2O[C@H](CO)[C@H](O)[C@H](O)[C@H]2O)c(-c2ccc(O)c(O)c2)oc2cc(O)cc(O)c12 [HY, Quercetin 3-O-β-D-galactopyranoside]",IC50,thrombin [5],> 1000 µM
"O=c1c(O[C@@H]2O[C@H](CO)[C@@H](O)[C@H](O)[C@H]2O)c(-c2ccc(O)c(O)c2)oc2cc(O)cc(O)c12 [IQ, Quercetin 3-O-β-D-glucopyranoside]",IC50,thrombin [6],28.8 µM
COc1ccc2c(c1)c(CC(=O)O)c(C)n2C(=O)c1ccc(Cl)cc1 [Indomethacin],inhibition at 5 µg/mL,"blood platelets [1]; 5 μg/mL, ADP",~23%
same,inhibition at 5 µg/mL,blood platelets [7],~86%
"O=c1c(O[C@@H]2O[C@@H](CO)[C@H](O)[C@H]2O)c(-c2ccc(O)cc2)oc2cc(O)cc(O)c12 [JU, Kaempferol 3-O-α-L-arabinofuranoside]",inhibition at 50 µg/mL,blood platelets [1],≤ 15%
"O=c1c(O)c(-c2ccc(O)cc2)oc2cc(O)cc(O)c12 [KA, Kaempferol]",IC50,thrombin [8],283 µM
same,IC50,thrombin [5],109 µM
"Oc1cc(O)c2c(c1)O[C@@]1(c3ccc(O)c(O)c3)Oc3cc(O)c4c(c3[C@@H]2[C@H]1O)O[C@H](c1ccc(O)c(O)c1)[C@H](O)C4 [PA2, proanthocyanidin A2]",IC50,thrombin [8],90.8 µM
same,Change of thrombin CD spectrum / secondary structure,human thrombin,most apparent modification of the thrombin α-helix structure
"C[C@@H]1O[C@@H](OC[C@H]2O[C@@H](Oc3c(-c4ccc(O)c(O)c4)oc4cc(O)cc(O)c4c3=O)[C@H](O)[C@@H](O)[C@@H]2O)[C@H](O)[C@H](O)[C@H]1O [RT, Quercetin 3-O-(6″-O-α-L-rhamnopyranosyl)-β-D-glucopyranoside]",IC50,thrombin [6],34.1 µM
same,IC50,thrombin [5],> 1000 µM
"C[C@@H]1O[C@@H](Oc2c(-c3ccc(O)cc3)oc3cc(O)cc(O)c3c2=O)[C@H](OC(=O)/C=C/c2ccc(O)cc2)[C@H](O)[C@H]1OC(=O)/C=C/c1ccc(O)cc1 [kaempferol-3-O-(2″,4″-di-E-p-coumaroyl)-rhamnoside]",IC50,thrombin [5],52 µM
O=c1c(O[C@@H]2O[C@H](CO)[C@@H](O)[C@H](O)[C@H]2O)c(-c2ccc(O)cc2)oc2cc(O)cc(O)c12 [kaempferol-3-O-glucoside],IC50,thrombin [5],> 1000 µM
"O=C(/C=C/c1ccc(O)cc1)O[C@H]1[C@H](Oc2c(-c3ccc(O)cc3)oc3cc(O)cc(O)c3c2=O)O[C@@H](CO)[C@@H]1O [p-cJU, Kaempferol 3-O-(2″-O-E-p-coumaroyl)-α-L-arabinofuranoside]",IC50,thrombin [8],67.8 µM
kaempferol-3-O-(2″-di-E-p-coumaroyl)-rhamnoside,IC50,thrombin [5],83 µM
